The source of these data is patent US8710099B2, “Treatment of cancer using the sodium salt of a benzoic acid derivative” (New York University, priority 2009, dated 2014).

The subject of data set [1] is B16F10 melanoma cells. In words: Chick embryo tumor growth model. The settings on record: for growth of the B16F10 tumors: 50 μg/ml C-45, TAXOL® 0.01 μM, FIG. 5B. Type of data set: in vivo, chick embryos. As to the method:
The chick embryo tumor growth model was used to determine whether C-45 enhances the ability of TAXOL® or ionizing radiation to inhibit tumor growth. Briefly, B16F10 melanoma cells were cultured in growth medium in the presence or absence of 50 μg/ml C-45 for at least 7 days. Following harvesting and washing, about 2×10^5 tumor cells were implanted onto the chorioallontoic membranes of 10 day-old chick embryos and incubated for at least 24 hours. Following incubation, the embryos were treated with either a single fractionated dose of radiation (5.0 Gy) or TAXOL® (paclitaxel) (0.01 μM) and incubated for an additional 7 days. The embryos were sacrificed and tumors were resected and weighed (5-10 embryos per condition).

Data set [2] relates to B16F10 melanoma cells. Briefly: In vivo tumor growth of B16F10 xenografts in nude mice. The settings on record: daily i.p. for 15 days, TAXOL® 0.5 μM, C-45 100 μg; FIG. 4. As to the method:
In addition, tumor growth in vivo of xenografts of B16F10 melanoma cells in nude mice was determined Briefly, subconfluent cultures of B16F10 cells were harvested, washed, and resuspended in sterile PBS. Female nude mice were injected subcutaneously with 1×10^6 cells per mouse and tumors were allowed to grow for 3 days. After 3 days, mice were either untreated or treated daily for 15 days by intraperitoneal injection of TAXOL® (0.5 μM), C-45 (100 μg), or a combination of TAXOL® and C-45. Tumor growth was determined weekly by caliper measurements. After 15 days, the mice were sacrificed and tumor volume was determined by standard methods using the formula […], where V=volume, L=length, and W=width.

Data set [3] has as its system tyrosinase (from mushrooms). In words: Purified tyrosinase activity, DOPAchrome formation. The settings on record: 8.0 mM, up to 10 minutes; FIG. 2. Type of data set: biochemical. As to the method:
Activity of purified tyrosinase was measured by monitoring the formation of DOPAchrome. Briefly, a fixed concentration of L-DOPA (8.0 mM) was incubated with 800 U/ml tyrosinase (from mushrooms-Sigma, St. Louis, Mo.) in the absence or presence of increasing concentrations of PABA, compound 44 (C-44) and compound 45 (C-45) (see FIG. 1 for structures) for indicated time points (see FIG. 2 for concentrations and time points). At each time point, 100 μl of the reaction mixture was measured. Data points represent the mean optical density at 475 nm±SD from triplicate wells.

Data set [4] has as its system Lewis Lung carcinoma cells. In words: Tumor cell proliferation, WST-1 tetrazolium salt cleavage. The settings on record: 50 μg/ml test compound, 0.01 μM TAXOL®; vs untreated control; FIG. 3B. It is filed as cell-based. As to the method:
(§1) Tumor cell proliferation was assessed by monitoring mitochondrial dehydrogenase activity as detected by tetrazolium salt cleavage using a commercially available kit (WST-1; Roche, Indianapolis, Ind.). Briefly, B16F10 melanoma cells, Lewis Lung carcinoma cells, and 4T1 breast carcinoma cells (1×10^6) were resuspended in PABA-free growth medium supplemented with 2.0% fetal bovine serum and 50 μg/ml of test compound (as shown in FIG. 1) Following incubation for 3 days, the cells were either treated or not treated with 0.01 μM TAXOL® and incubated for an additional 48 hours. Proliferation was measured; data points represent the mean optical density at 490 nm±SD from triplicate wells.
On the technique in general: Formazan colour is commonly taken as a measure of viable cells.

Data set [5] has as its system B16F10 melanoma cells. Described as above. The settings on record: 50 μg/ml test compound, 0.01 μM TAXOL®; vs untreated control; FIG. 3A. Type of data set: cell-based. As to the method: as §1
Data set [6] relates to 4T1 breast carcinoma cells. The data set is described as above. Type of data set: cell-based. The settings on record: 50 μg/ml test compound, 0.01 μM TAXOL®; vs untreated control; FIG. 3C. As to the method:
as §1

For the next data set, the target named is T1, PXR/SXR receptor (Homo sapiens, UniProt O75469).
T1 sequence (O75469 1-434): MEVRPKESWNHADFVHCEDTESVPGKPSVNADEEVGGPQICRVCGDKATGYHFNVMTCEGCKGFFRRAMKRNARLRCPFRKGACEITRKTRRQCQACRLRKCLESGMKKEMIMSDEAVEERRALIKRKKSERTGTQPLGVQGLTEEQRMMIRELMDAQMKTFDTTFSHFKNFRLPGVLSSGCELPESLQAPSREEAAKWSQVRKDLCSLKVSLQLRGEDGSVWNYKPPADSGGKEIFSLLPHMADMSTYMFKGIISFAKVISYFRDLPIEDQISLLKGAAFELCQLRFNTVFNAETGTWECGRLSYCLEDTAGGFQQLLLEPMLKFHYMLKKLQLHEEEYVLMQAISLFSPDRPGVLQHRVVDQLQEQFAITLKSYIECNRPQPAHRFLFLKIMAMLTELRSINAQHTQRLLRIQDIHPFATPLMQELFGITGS
The settings on record: Moore et al., Mol. Endocrinol. 2002; cited from earlier work.

Data set [7] concerns G361 human melanoma cells. In words: Protein expression in PABA-treated G361 melanoma cells (data not shown). Type of data set: cell-based. The settings on record: G361 cells treated with PABA.

Take `C=CCNc1ccc(C(=O)O)cc1` [C-45, 4-allylaminobenzoic acid]: the “growth of the B16F10 tumors” value in the data set with B16F10 melanoma cells [1] is given as “inhibited the growth of the B16F10 tumors significantly”. Also, the “tumor growth in vivo, combination with radiation” value with B16F10 melanoma cells [1] (50 μg/ml C-45 plus single dose of radiation 5.0 Gy, FIG. 5A) is “even more effective at inhibiting tumor growth”. Further, in the data set on B16F10 melanoma cells [1] (cells cultured with 50 μg/ml C-45, C-45 alone, FIG. 5A), the tumor weight entry is reported as “reduced tumor weight significantly”. In addition, the “in vivo tumor growth compared to untreated controls” value in the data set with B16F10 melanoma cells [2] is “neither TAXOL® nor C-45 inhibited in vivo tumor growth”. The tyrosinase activity entry in data set [3] is on record as “inhibited tyrosinase activity”. In addition, the “in vitro proliferation of Lewis Lung carcinoma cells” value in data set [4] was “inhibited in vitro proliferation”. Besides, the “in vitro proliferation of B16F10 cells” value with B16F10 melanoma cells [5] is on record as “inhibited in vitro proliferation”. In addition, the “in vitro proliferation of 4T1 breast carcinoma cells” value in data set [6] is on record as “inhibited in vitro proliferation”.
As for `CC(=O)O[C@H]1C(=O)[C@@]2(C)[C@H]([C@H](OC(=O)c3ccccc3)[C@]3(O)C[C@H](OC(=O)[C@H](O)[C@@H](NC(=O)c4ccccc4)c4ccccc4)C(C)=C1C3(C)C)[C@]1(OC(C)=O)CO[C@@H]1C[C@@H]2O` [TAXOL®, paclitaxel, reference compound], the “growth of the B16F10 tumors” value in the data set with B16F10 melanoma cells [1] is listed as “inhibited the growth of the B16F10 tumors significantly”. In addition, in the data set with B16F10 melanoma cells [2], the “in vivo tumor growth compared to untreated controls” value is “neither TAXOL® nor C-45 inhibited in vivo tumor growth”. Moreover, the “in vitro proliferation of Lewis Lung carcinoma cells” value in data set [4] is on record as “inhibited in vitro proliferation”. In addition, the “in vitro proliferation of B16F10 cells” value in the data set on B16F10 melanoma cells [5] is “inhibited in vitro proliferation”. In data set [6], the “in vitro proliferation of 4T1 breast carcinoma cells” value is recorded as “inhibited in vitro proliferation”.
For `Nc1ccc(C(=O)O)cc1` [PABA, para-amino-benzoic-acid], the “binding to the PXR/SXR receptor” value at PXR/SXR receptor is “bind to the PXR/SXR receptor”. Further, the tyrosinase activity entry in data set [3] is reported as “inhibited tyrosinase activity”. In data set [7], the “expression of cell-cycle progression checkpoint protein CDC25A” value was “increase expression” and the “protein expression of DNA repair protein BRCA-2” value is “decreased protein expression”.
